Experimental data taken from PMC5328913 (Redox Biology, 2017).

Target: T1, L-galactono-1,4-lactone dehydrogenase (GalLDH) from pepper fruits (Capsicum annuum, UniProt Q6QD76)
T1 sequence (Q6QD76 38-586): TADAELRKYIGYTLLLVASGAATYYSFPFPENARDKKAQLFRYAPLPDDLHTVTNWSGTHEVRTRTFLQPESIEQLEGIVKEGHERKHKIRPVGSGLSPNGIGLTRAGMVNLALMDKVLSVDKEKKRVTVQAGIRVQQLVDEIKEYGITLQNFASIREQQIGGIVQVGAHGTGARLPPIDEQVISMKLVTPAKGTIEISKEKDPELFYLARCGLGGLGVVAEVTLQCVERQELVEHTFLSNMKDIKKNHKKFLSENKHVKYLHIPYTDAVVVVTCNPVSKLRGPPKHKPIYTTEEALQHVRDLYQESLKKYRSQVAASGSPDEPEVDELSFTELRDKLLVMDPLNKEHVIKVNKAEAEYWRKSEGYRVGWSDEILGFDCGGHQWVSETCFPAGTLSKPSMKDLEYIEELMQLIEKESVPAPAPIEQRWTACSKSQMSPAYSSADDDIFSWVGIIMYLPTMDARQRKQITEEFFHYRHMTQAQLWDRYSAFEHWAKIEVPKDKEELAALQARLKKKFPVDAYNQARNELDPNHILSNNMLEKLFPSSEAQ
Test: spectrophotometric cytochrome c reduction at […] nm
Format: biochemical
Conditions: read-out: % inhibition at 0.5 mM and 2 mM

inhibition at 500 µM: 60%
Structure (SMILES): N[C@@H](CCC(=O)N[C@@H](CS)C(=O)NCC(=O)O)C(=O)O [GSH, reduced glutathione]
